According to US8092842B2, “Extraction of phytochemicals by enzymatic hydrolysis” (Pos Pilot Plant Corporation, priority 2007, dated 2012):

Test system: lymphocytes isolated from Balb/C mice
Assay: lymphocyte cell proliferation assay
Type: cell-based
Settings: LPS at 1 μg/ml (table prints concentration n/a)
Protocol: The effects of the ginseng extracts produced during these studies, on cell proliferation of lymphocytes isolated from Balb/C mice were assessed by the methods disclosed in Chapters 2 and 3 in Current Protocols in Immunology, (Coligan et al., Eds, 2007, John Wiley & Sons). A first positive control was lipopolysaccharide (LPS) at a concentration of 1 μg/ml. LPS (Prod. L4641) was supplied by Sigma-Aldrich Canada (Oakville, ON, Canada). A commercially available poly-furanosyl-pyranosyl-saccharide-rich ginseng extract, Cold-FX® (Cold-FX is a registered trademark of CV Technologies Inc., Edmonton, Alberta, Canada), was obtained from a local supermarket, and was used for comparison as a second positive control. The effects of the positive controls and the ginseng extracts produced by the three studies described herein on cell proliferation are shown in Table 1. […]
The bioactivity of the dried ginseng extract produced with the pilot scale process disclosed herein was assessed using the assay, related methods, positive and negative controls as described in Example 1.
The biological activity of the dried ginseng extracts produced from alcohol-washed dried ginseng meal during the first study of this example was assessed using the assay and methods described in Example 1, and the results compared to the positive control #2 described in Example 1.

## lipopolysaccharide [Positive control #1 (LPS)]
  Optical Density (lymphocyte cell proliferation): 0.361
